Data on four compounds can be found in ChEMBL document CHEMBL3120108, “Direct interaction of garcinol and related polyisoprenylated benzophenones of Garcinia cambogia fruits with the transcription factor STAT-1 as a likely mechanism of their inhibitory effect on cytokine signaling pathways” (J Nat Prod, 2014).

Assay [1] concerns the target T1, Signal transducer and activator of transcription 1 (Rattus norvegicus) (UniProt Q6P6Q7).
T1 sequence (whole entry): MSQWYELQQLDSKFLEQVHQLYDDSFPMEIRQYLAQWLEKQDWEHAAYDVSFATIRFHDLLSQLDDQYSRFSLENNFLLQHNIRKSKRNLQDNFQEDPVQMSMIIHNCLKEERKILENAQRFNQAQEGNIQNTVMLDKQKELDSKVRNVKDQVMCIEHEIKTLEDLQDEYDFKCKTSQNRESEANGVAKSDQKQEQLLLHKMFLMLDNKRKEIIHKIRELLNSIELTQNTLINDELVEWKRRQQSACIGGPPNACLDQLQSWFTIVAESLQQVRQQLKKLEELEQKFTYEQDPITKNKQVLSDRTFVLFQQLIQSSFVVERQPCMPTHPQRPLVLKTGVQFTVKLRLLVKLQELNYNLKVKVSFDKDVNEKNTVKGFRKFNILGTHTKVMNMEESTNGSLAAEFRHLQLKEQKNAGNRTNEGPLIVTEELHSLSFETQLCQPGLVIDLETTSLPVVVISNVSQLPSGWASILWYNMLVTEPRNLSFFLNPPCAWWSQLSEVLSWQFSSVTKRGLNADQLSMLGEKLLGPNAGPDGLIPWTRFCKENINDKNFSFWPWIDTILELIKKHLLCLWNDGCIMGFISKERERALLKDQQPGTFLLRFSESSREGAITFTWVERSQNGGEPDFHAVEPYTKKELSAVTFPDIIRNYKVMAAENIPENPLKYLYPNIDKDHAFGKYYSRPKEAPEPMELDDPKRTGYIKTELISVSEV
Put plainly: Inhibition of INFgamma-induced STAT1 activation in rat INS-1E cells assessed as reduction of STAT1-DNA binding activity at 10 uM preincubated for 30 mins followed by cytokine challenge measured after 60 mins by electrophoretic mobility shift assay. Format: cell-based.

Assay [2] has as its target T1, Signal transducer and activator of transcription 1 (Rattus norvegicus). Briefly: Inhibition of INFgamma-induced STAT1 activation in rat INS-1E cells assessed as reduction of STAT1-DNA binding activity at 25 uM preincubated for 30 mins followed by cytokine challenge measured after 60 mins by electrophoretic mobility shift assay. In kind it is cell-based.
The target of assay [3] is T2, Signal transducer and activator of transcription 1-alpha/beta (Homo sapiens) (UniProt P42224).
T2 sequence (whole entry): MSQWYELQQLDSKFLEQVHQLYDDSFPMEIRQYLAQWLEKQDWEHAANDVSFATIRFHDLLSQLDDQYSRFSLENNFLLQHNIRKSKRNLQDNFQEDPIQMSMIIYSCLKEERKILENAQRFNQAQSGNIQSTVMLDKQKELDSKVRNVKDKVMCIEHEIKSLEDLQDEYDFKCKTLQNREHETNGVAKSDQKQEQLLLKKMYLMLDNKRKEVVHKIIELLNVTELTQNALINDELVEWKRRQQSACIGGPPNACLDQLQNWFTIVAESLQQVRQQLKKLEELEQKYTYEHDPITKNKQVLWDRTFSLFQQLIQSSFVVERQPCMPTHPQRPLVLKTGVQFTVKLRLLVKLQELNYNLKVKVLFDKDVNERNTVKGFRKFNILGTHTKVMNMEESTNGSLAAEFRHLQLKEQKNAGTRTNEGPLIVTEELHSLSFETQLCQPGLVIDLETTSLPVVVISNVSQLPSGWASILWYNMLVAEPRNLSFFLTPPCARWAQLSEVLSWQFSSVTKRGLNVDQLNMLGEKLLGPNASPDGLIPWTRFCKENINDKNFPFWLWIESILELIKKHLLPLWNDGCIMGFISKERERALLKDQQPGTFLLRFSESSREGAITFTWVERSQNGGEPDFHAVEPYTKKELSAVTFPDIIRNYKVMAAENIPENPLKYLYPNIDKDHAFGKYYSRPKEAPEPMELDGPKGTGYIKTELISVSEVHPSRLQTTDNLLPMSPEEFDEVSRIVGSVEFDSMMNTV
Put plainly: Inhibition of STAT1 in human […] cells assessed as suppression of INFgamma-induced SOCS-1 expression at 25 to 40 uM by Northern blotting technique. Format: cell-based.

Assay [4] has as its target T2, Signal transducer and activator of transcription 1-alpha/beta (Homo sapiens). Put plainly: Inhibition of INFgamma-induced STAT1 activation in human […] cells assessed as reduction of STAT1-DNA binding activity at 50 uM preincubated for 30 mins followed by cytokine challenge measured after 60 mins by electrophoretic mobility shift assay. In kind it is cell-based. (Mobility shift assays separate free from complexed probe on a gel.)

The target is the same in assay [5]. Put plainly: Inhibition of INFgamma-induced STAT1 activation in human […] cells assessed as reduction of STAT1-DNA binding activity preincubated for 30 mins followed by cytokine challenge measured after 60 mins by electrophoretic mobility shift assay. Format: cell-based.
Assay [6] addresses T3, Signal transducer and activator of transcription 1-alpha/beta (Homo sapiens, UniProt P42224).
T3 sequence (P42224 whole entry): T2 sequence (whole entry)
Briefly: Binding affinity to STAT1 (unknown origin) by surface plasmon resonance assay. (In general: In SPR one partner is held on a chip, and binding of the other changes the refractive index at the surface.)

Assay [7] deals with INS-1E. Put plainly: Inhibition of TNFalpha-induced NFkappaB activation in rat INS-1E cells assessed as reduction of NFkappaB-DNA binding activity at 25 uM preincubated for 30 mins followed by cytokine challenge measured after 60 mins by electrophoretic mobility shift assay. In kind it is cell-based.
In assay [8] the test system is MDA-MB-231. Put plainly: Inhibition of TNFalpha-induced NFkappaB activation in human MDA-MB-231 cells assessed as reduction of NFkappaB-DNA binding activity at 50 uM preincubated for 30 mins followed by cytokine challenge measured after 60 mins by electrophoretic mobility shift assay. Format: cell-based.
Assay [9] relates to MDA-MB-231. Put plainly: Inhibition of TNFalpha-induced NFkappaB activation in human MDA-MB-231 cells assessed as reduction of NFkappaB-DNA binding activity preincubated for 30 mins followed by cytokine challenge measured after 60 mins by electrophoretic mobility shift assay. In kind it is cell-based.
In assay [10] the target is T2, Signal transducer and activator of transcription 1-alpha/beta (Homo sapiens). Briefly: Inhibition of INFgamma-induced STAT1 activation in human […] cells assessed as reduction of STAT1-DNA binding activity at 25 uM preincubated for 30 mins followed by cytokine challenge measured after 60 mins by electrophoretic mobility shift assay. In kind it is cell-based.

The source made the active and inactive calls. The rule behind the calls is not given here.

Turning to `CC(C)=CCC[C@@]1(C)[C@H](CC=C(C)C)C[C@]2(CC=C(C)C)C(=O)[C@@]1(CC=C(C)C)C(=O)C(C(=O)c1ccc(O)c(O)c1)=C2O` [GUTTIFERONE K], the inhibition result in assay [1], in [2], in [3] and in assay [4] was “Active” throughout. Also, in assay [5], the inhibition result is “Dose-dependent effect”. Besides, the Kd in assay [6] came to 20.6 µM.

For the compound `CC(C)=CCC/C(C)=C/C[C@@]12C[C@H](CC=C(C)C)C(C)(C)[C@@](CC=C(C)C)(C(=O)C(C(=O)c3ccc(O)c(O)c3)=C1O)C2=O`, the inhibition result in assay [7], in [8] and in [2] was “inactive” throughout. Also, the inhibition result in assay [4] was “Active”. Moreover, the inhibition entry in assay [5] is “Dose-dependent effect”. In assay [6], this compound had a Kd of 4.67 µM.

For the compound `C=C(C)[C@@H](CC=C(C)C)C[C@@]12C[C@@H](CC=C(C)C)C(C)(C)[C@@](CC=C(C)C)(C(=O)C(C(=O)c3ccc(O)c(O)c3)=C1O)C2=O` [GARCINOL], the inhibition entry in assay [7], in assay [8], in assay [2] and in assay [10] was “Active” in each case. Moreover, the inhibition entry in [9] and in assay [5] was “Dose-dependent effect” in each case. In assay [6], this compound showed a Kd of 16.9 µM.

`O=C(O[C@@H]1Cc2c(O)cc(O)cc2O[C@@H]1c1cc(O)c(O)c(O)c1)c1cc(O)c(O)c(O)c1` [EPIGALOCATECHIN GALLATE] displayed a Kd in assay [6] of 0.7 µM.

As a reminder, the Kd is the free concentration of one partner at which half of the binding sites on the other are occupied at equilibrium, for simple one-to-one binding.
